Series [1] can be described thus: Molybdenum concentration of aqueous solutions/supernatants measured by ICP-AES versus calculated values (FIGS. 5 and 6). Particulars: water, FIG. 6. In kind it is physicochemical. As for the experimental part:
Similarly, aqueous solutions of the slightly-soluble molybdenum-containing substances (as indicated by “Slightly-soluble” in the column “Water solubility” in Table 1) in varying concentrations were prepared. […] In particular, ammonium molybdophosphate (MoPNH), which is a salt of a heteroacid, stops dissolving at a molybdenum amount of approximately 0.2 mM or higher, and can therefore be kept at an especially low concentration.

The subject of the next series is sulfide ion generation. In words: Inhibition of sulfide ion generation, paddy seeds covered with slightly-soluble substances (Example 2-3, FIG. 9). Particulars: approximately 0.1 mmol/g (per dry seeds) in terms of molybdenum or tungsten. The text has this:
The water on slightly germinated seeds was lightly wiped off, and immediately after that, the seeds were put with (lightly covered with) various amounts of the slightly-soluble substances shown in Table 1. […] The number of days for which sulfide ion generation was inhibited and the proportion of seedling establishment were examined.

For another series, the system named is paddy seeds. As to the kind of experiment: Possibility of growth of paddy seeds in tank farming without soil (Example 3). Particulars: in vivo. As for the experimental part:
The decay-inhibiting effect of molybdenum-containing substances in tank farming without soil was examined.
The possibility of growth and the inhibition of decay were determined in the same manner as above.

For the next series, the system named is soybean. In words: Seedling establishment of soybean seeds submerged for two days (Example 6a-1, FIG. 20e). It counts as in vivo. Conditions: 0.01 mmol to 0.5 mmol molybdenum per gram of dry seed, 25° C., versus untreated seeds. As to the method:
Soil was prepared in the same manner as in Example 6-1. Next, soybean seeds (branded as Fukuyutaka) not subjected to treatment such as soaking in advance were soaked for one minute in a tenfold diluted solution of a commercially available laundry starch (manufactured by Rocket Soap Co., Ltd.; My Laundry Starch) containing approximately a little less than 10% by weight of polyvinyl alcohol. Then, the seeds were spin-dried for thirty seconds in a commercially available washing machine for removal of the extra water. […] These seeds were buried so that the upper edge of each seed was at the same height as the soil surface. In an artificially-lit (amount of light 0.4 mmol/m^2/s, lit for twelve hours per day) room at 25° C., water was added immediately after seeding so that the surface water was 15 mm high. After two days, the surface water was sucked up with a pipette for removal. Six containers were allotted for each condition, and the proportion of seedling establishment (proportion of individual plants that survived) was measured two weeks after seeding. It should be noted that in FIG. 20e, the horizontal axis represents the number of moles (mmol) of molybdenum that adhered per gram of dry seed. In FIG. 20e, the dots correspond to the numbers of moles of 0 (UNTREATED), 0.01, 0.02, 0.05, 0.1, 0.2, and 0.5 mmol, starting from the left. […]

The test system of another series is barley. As to the kind of experiment: Avoidance of wet damage to barley in a poorly-drained paddy field (Example 7, FIG. 21). It counts as in vivo. The text has this:
To a poorly-drained paddy field in Chikugo City, Fukuoka Prefecture, 1.2 t/10 a of cow manure and ammonium sulfate in an equivalent amount of 6 kg/10 a in terms of nitrogen were applied. In November 2009, 9 kg/10 a of barley seed (branded as Nishinochikara) was planted. In February 2010, the paddy field was partitioned by corrugated plates into eight areas 50 cm×70 cm each. On Feb. 19, 2010 or Mar. 17, 2010, ammonium molybdophosphate was applied in equivalents amounts of 0, 0.03, 0.1, 0.3 mol/m^2 in terms of molybdenum. On May 11, 2010, the shoots of the barley in the areas partitioned from one another by the corrugated plates were harvested, and the dry weight was obtained.

The conditions of series [2]: in water, powder, trihydrate, cited from earlier work.

Like-named read-outs stand apart in the source and are kept apart here. Bounds are passed on as bounds.

In the case of “Triammonium 12-moblydo(VI)phosphate trihydrate [Ammonium molybdophosphate]”, the “molybdenum amount at which the substance stops dissolving” value in series [1] was “approximately 0.2 mM”. Also, the “number of days for which sulfide ion generation was inhibited” value in the series with sulfide ion generation is “fourteen”. In the series with paddy seeds, this substance came in with a Possibility of growth, Amount of molybdenum or tungsten added to seed greater than 1 mmol/g. In the series with soybean, the “proportion of seedling establishment” value is recorded as “improvements in proportion of seedling establishment”. The “dry weight of the shoots at harvest time, trend with amount applied” value with barley (0.03 to 0.3 mol/m^2 in terms of molybdenum) was “increase in dry weight of the shoots”. Further, in the series with barley (approximately 0.3 mol/m^2 molybdenum applied in February), the “dry weight of the shoots at harvest time” value was “approximately 0.25 kg/m^2”. Besides, the figures for the Water solubility result in series [2] (listed as ammonium molybdophosphate) and in series [2] were “slightly soluble” and “Slightly soluble (has a percentage of solubility of 10% by weight or lower with respect to water)”, respectively.
